How the values were obtained:
[1] = system: phospho-p90RSK in A375 cell line; experiment: A375 Phospho-p90RSK Cellular Assay; assay type: cell-based, human; settings: Homo sapiens, A-375, 2 h, A375 cells, 2 hours incubation
In short: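 A375 cells (2400/well, DMEM/10% FCS) seeded overnight, then dosed over a 12-point range from 30 μM down to 0.00003 μM (0.3% DMSO) for 2 h at 37 °C. Fixed cells were immunostained for phospho-p90RSK Thr359 with Hoechst nuclear counterstain and read by high-content imaging; IC50s fitted from dose-response.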

ERK2 = molecular target: T1, ERK2 (Homo sapiens, UniProt P28482); experiment: ERK2 Rapidfire Mass Spectrometry Inhibition of Catalysis Assay; assay type: biochemical; settings: 1.2 nM ERK2, 16 μM Erktide, 120 μM ATP (measured Km), 15 minute pre-incubation; read-out: ERK2 Mass Spectrometry Enzyme IC50
T1 construct: made in house
T1 sequence (P28482 whole entry): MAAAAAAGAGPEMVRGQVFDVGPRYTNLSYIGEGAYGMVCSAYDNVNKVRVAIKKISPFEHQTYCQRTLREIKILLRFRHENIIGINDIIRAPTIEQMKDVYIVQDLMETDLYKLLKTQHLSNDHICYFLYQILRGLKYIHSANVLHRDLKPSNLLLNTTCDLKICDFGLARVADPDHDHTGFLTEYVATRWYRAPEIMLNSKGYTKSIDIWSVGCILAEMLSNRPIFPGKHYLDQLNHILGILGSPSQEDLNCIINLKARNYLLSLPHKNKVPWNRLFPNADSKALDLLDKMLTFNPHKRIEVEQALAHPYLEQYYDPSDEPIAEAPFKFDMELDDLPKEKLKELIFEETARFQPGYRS
In short: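 In-house MEK-activated ERK2 (1.2 nM) in 50 mM Tris pH 7.5, 10 mM MgCl2, 0.1 mM EGTA, 10 mM DTT, 0.01% CHAPS; 12-point dose range 10–0.0000125 μM, 1% DMSO. Reaction 20 min at room temperature, formic acid quench; Erktide and phospho-Erktide measured by RapidFire mass spectrometry to give IC50.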

For `COC[C@H]1Cn2cc(-c3nc(Nc4ccnn4C)ncc3C)nc2C(=O)N1Cc1ccc(F)c(F)c1` [Example 18, (R)-7-(3,4-Difluorobenzyl)-6-(methoxymethyl)-2-(5-methyl-2-((1-methyl-1H-pyrazol-5-yl)amino)pyrimidin-4-yl)-6,7-dihydroimidazo[1,2-a]pyrazin-8(5H)-one], the IC50 [1] was 5.7 nM and the IC50 (ERK2) was 0.6 nM.

— patent publication US10202391B2, “Chemical compounds” (AstraZeneca AB, priority 2015, dated 2019)
